These are literature values, as cited in patent US11786460B2, “Pharmaceutical dry powder composition for inhalation comprising a thyroid hormone” (priority 2018, dated 2023).

For series [1] the following is noted: mainly in the jejunum and ileum.
The subject of another series is Calu-3 cells. As to conditions: in vitro.

Each structure is given as a SMILES string.

Take `N[C@@H](Cc1cc(I)c(Oc2cc(I)c(O)c(I)c2)c(I)c1)C(=O)O` [levothyroxine]: the “fraction absorbed after oral administration” value in series [1] was 60-80%. Also, the “absorption from the respiratory mucosa (permeability)” value in the series with Calu-3 cells is given as “can be absorbed effectively from the respiratory mucosa”.
